# Test results from patent US20250346601A1, “HETEROCYCLIC COMPOUNDS FOR THE PREVENTION AND THERAPY OF CIRCADIAN RHYTHM DISORDERS” (UNIVERZITA PALACKEHO V OLOMOUCI, priority 2022, published 2025).
# Assays:
# [1] = system: U2OS line transduced with the Bmal 1-Luc reporter; test: Period of the circadian rhythm in U2OS cells with Bmal1-Luc reporter (luminescence, cosinor analysis); type: cell-based, Human; settings: for Period length ± standard error of the mean (expressed relative to control) at the indicated concentration: U2OS, DMSO control = 1.00
# Method: Human osteosarcoma U2OS cells were grown in standard DMEM medium with 10% fetal bovine serum. U2OS cells were transduced with lentiviral particles containing a Bmall-Luc fusion reporter and selected under Blasticidin. The cell line was clonally expanded and a single monoclonal cell line was used for further experiments. Cells were cultured in a 384-well plate in growth medium to 90+% confluence. Test compound or vehicle (DMSO) was applied to recording medium with 100 U/ml penicillin, 100 ug/ml streptomycin, 1x GlutaMAX, 10% fetal bovine serum, and 0.1 mM Luciferin-EF. Luminescence was recorded every hour for the next 144 hours. Circadian rhythm analysis was performed using cosinor analysis.
# The length of the period was expressed relative to the period of cells affected only by DMSO vehicle (their period is therefore 1.00). […] The overall effect on circadian oscillations unequivocally proves that the compounds of formula I can be also used to temporally modulate the concentration and activity of not only BMAL1, but also other components of the oscillator including the critical components PER2, CRY and CLOCK in time, as these are an essential part of the mechanism generating the rhythmic expression of the luminescent reporter used. The concentration and level of other proteins, whose rhythmic expression is controlled by an oscillator in the brain and peripheral tissues (so-called clock-controlled genes), are also necessarily affected. The influence of the compounds of formula I on the activity of oscillator components and subordinate genes also means influencing the physiological processes of the cell controlled by these genes and proteins. N^6-furfuryladenine was used as a reference compound. […] The ability to shift the phase of the circadian cycle can be seen in FIG. 2.
# [2] = system: NIH3T3 line transfected with the Per2-Luc reporter; test: Period of the circadian rhythm in NIH3T3 fibroblasts with Per2-Luc reporter (luminescence, cosinor analysis); type: cell-based, mouse; settings: for Period length ± standard error of the mean (expressed relative to the control) at the indicated concentration: NIH3T3, DMSO control = 1.00
# Method: NIH3T3 mouse embryonic fibroblasts were grown in standard DMEM with 10% fetal bovine serum. NIH3T3 cells were transfected with 1 μg of Per2-Luc reporter using GeneJuice and selected under hygromycin. The cell line was clonally expanded and a single monoclonal cell line was used for further experiments. Cells were cultured in a 96-well plate in growth medium to 90+% confluence. Test compound or vehicle (DMSO) was applied to recording medium with 100 U/ml penicillin, 100 μg/ml streptomycin, 1x GlutaMAX, 10% fetal calf serum and 0.1 mM Luciferin-EF (Promega Madison, WI, USA). Luminescence was recorded every hour for the next 144 hours. Circadian rhythm analysis was performed using cosinor analysis. Period length was expressed relative to the period of cells affected only by DMSO vehicle (their period length is therefore 1.00).
smiles,measurement,setting,value
"c1coc(CNc2ncnc3nc[nH]c23)c1 [N^6-furfuryladenine, reference compound]",Period length ± standard error of the mean (expressed relative to control) at the indicated concentration,[1]; 20 μM,20 μM: 1.02 ± 0.01
same,Effect on the period of the circadian rhythm (in words),[1]; U2OS Bmal1-Luc,minimal effect
same,Period length ± standard error of the mean (expressed relative to the control) at the indicated concentration,[2]; 50 μM,50 μM: 1.06 ± 0.02
same,Effect on the period of the circadian rhythm (in words),[2]; NIH3T3 Per2-Luc,much smaller effect
CNc1nc(NCc2ccc(C)o2)c2ncn(C3CCCCO3)c2n1 (centres unmarked) [Compound 50],Period length ± standard error of the mean (expressed relative to control) at the indicated concentration,[1]; 10 μM,1.11 ± 0.01
same,Period length ± standard error of the mean (expressed relative to control) at the indicated concentration,[1]; 20 μM,1.14 ± 0.02
same,Period length ± standard error of the mean (expressed relative to the control) at the indicated concentration,[2]; 50 μM,50 μM: 1.6 ± 0.02
"CC(C)OCCn1cnc2c(NCc3ccco3)ncnc21 [N-(furan-2-ylmethyl)-9-(2-isopropoxyethyl)-9H-purin-6-amine, reference compound]",Period length ± standard error of the mean (expressed relative to control) at the indicated concentration,[1]; 50 μM,50 μM: 1.01 ± 0.01
same,Period length ± standard error of the mean (expressed relative to the control) at the indicated concentration,[2]; 50 μM,50 μM: 0.95 ± 0.02
Clc1nc(NCc2ccco2)c2ncn(C3CCOCC3)c2n1 [Compound 10],Period length ± standard error of the mean (expressed relative to control) at the indicated concentration,[1]; 10 μM,10 μM: 1.09 ± 0.01
same,Period length ± standard error of the mean (expressed relative to the control) at the indicated concentration,[2]; 10 μM,10 μM: 1.14 ± 0.01
CNc1nc(NCc2ccco2)c2ncn(C3CCCCO3)c2n1 (centres unmarked) [Compound 33],Period length ± standard error of the mean (expressed relative to control) at the indicated concentration,[1]; 5 μM,5 μM: 1.04 ± 0
same,Period length ± standard error of the mean (expressed relative to the control) at the indicated concentration,[2]; 50 μM,50 μM: 1.18 ± 0.02
NCCNc1nc(NCc2ccco2)c2ncn(C3CCCC3)c2n1 [Compound 18],Period length ± standard error of the mean (expressed relative to control) at the indicated concentration,[1]; 1 μM,1 μM: 1.16 ± 0.03
same,Period length ± standard error of the mean (expressed relative to the control) at the indicated concentration,[2]; 10 μM,1.19 ± 0
same,Period length ± standard error of the mean (expressed relative to the control) at the indicated concentration,[2]; 50 μM,2.19 ± 0.35
COCCCNc1nc(NCc2ccco2)c2ncn(C3CCCCO3)c2n1 (centres unmarked) [Compound 46],Period length ± standard error of the mean (expressed relative to control) at the indicated concentration,[1]; 20 μM,20 μM: 1.05 ± 0.01
same,Period length ± standard error of the mean (expressed relative to the control) at the indicated concentration,[2]; 50 μM,50 μM: 1.27 ± 0.04
"CN(C)c1nc(NCc2ccco2)c2ncn(C3CCCC3)c2n1 [Compound 15, 9-cyclopentyl-N^6-(furan-2-ylmethyl)-N^2,N^2-dimethyl-9H-purine-2,6-diamine]",Period length ± standard error of the mean (expressed relative to control) at the indicated concentration,[1]; 1 μM,1.05 ± 0.01
same,Period length ± standard error of the mean (expressed relative to control) at the indicated concentration,[1]; 4 μM,1.15 ± 0.01
same,Period length ± standard error of the mean (expressed relative to the control) at the indicated concentration,[2]; 0.83 μM,1.08 ± 0.05
same,Period length ± standard error of the mean (expressed relative to the control) at the indicated concentration,[2]; 50 μM,1.56 ± 0.07
CN(C)CCNc1nc(NCc2ccco2)c2ncn(C3CCCCO3)c2n1 (centres unmarked) [Compound 44],Period length ± standard error of the mean (expressed relative to control) at the indicated concentration,[1]; 1 μM,1.05 ± 0.01
same,Period length ± standard error of the mean (expressed relative to control) at the indicated concentration,[1]; 5 μM,1.28 ± 0.02
same,Period length ± standard error of the mean (expressed relative to the control) at the indicated concentration,[2]; 50 μM,50 μM: 1.72 ± 0.04
CNc1nc(NCc2ccco2)c2ncn(C3CCCO3)c2n1 (centres unmarked) [Compound 22],Period length ± standard error of the mean (expressed relative to control) at the indicated concentration,[1]; 10 μM,10 μM: 1.06 ± 0
same,Period length ± standard error of the mean (expressed relative to the control) at the indicated concentration,[2]; 50 μM,50 μM: 1.22 ± 0.02
Clc1nc(NCc2ccco2)c2ncn(C3CCCC3)c2n1 [Compound 6],Period length ± standard error of the mean (expressed relative to control) at the indicated concentration,[1]; 5 μM,5 μM: 1.23 ± 0.03
same,Period length ± standard error of the mean (expressed relative to the control) at the indicated concentration,[2]; 10 μM,10 μM: 1.27 ± 0.01
CN(C)c1nc(NCc2ccco2)c2ncn(C3CCCCO3)c2n1 (centres unmarked) [Compound 34],Period length ± standard error of the mean (expressed relative to control) at the indicated concentration,[1]; 10 μM,1.12 ± 0.01
same,Period length ± standard error of the mean (expressed relative to control) at the indicated concentration,[1]; 20 μM,1.25 ± 0.03
same,Period length ± standard error of the mean (expressed relative to control) at the indicated concentration,[1]; 50 μM,50 μM: 1.73 ± 0.6
same,Period length ± standard error of the mean (expressed relative to the control) at the indicated concentration,[2]; 50 μM,50 μM: 2.3 ± 0.03
c1coc(CNc2nc(NCc3ccco3)c3ncn(C4CCCCO4)c3n2)c1 (centres unmarked) [Compound 38],Period length ± standard error of the mean (expressed relative to control) at the indicated concentration,[1]; 10 μM,10 μM: 1.1 ± 0.02
same,Period length ± standard error of the mean (expressed relative to the control) at the indicated concentration,[2]; 50 μM,50 μM: 1.22 ± 0.06
Cc1ccc(CNc2nc(N(C)C)nc3c2ncn3C2CCCO2)o1 (centres unmarked) [Compound 24],Period length ± standard error of the mean (expressed relative to control) at the indicated concentration,[1]; 10 μM,1.03 ± 0
same,Period length ± standard error of the mean (expressed relative to control) at the indicated concentration,[1]; 20 μM,1.09 ± 0.01
same,Period length ± standard error of the mean (expressed relative to the control) at the indicated concentration,[2]; 50 μM,50 μM: 1.24 ± 0.07
"CC(C)(C)OCCn1cnc2c(NCc3ccco3)ncnc21 [9-[2-(tert-butoxy)ethyl]-N-(furan-2-ylmethyl)-9H-purin-6-amine, reference compound]",Period length ± standard error of the mean (expressed relative to control) at the indicated concentration,[1]; 50 μM,50 μM: 1 ± 0.01
same,Period length ± standard error of the mean (expressed relative to the control) at the indicated concentration,[2]; 50 μM,50 μM: 0.9 ± 0.06
CNc1nc(NCc2ccco2)c2ncn(C3CCCCCO3)c2n1 (centres unmarked) [Compound 60],Period length ± standard error of the mean (expressed relative to control) at the indicated concentration,[1]; 5 μM,1.04 ± 0
same,Period length ± standard error of the mean (expressed relative to control) at the indicated concentration,[1]; 20 μM,1.15 ± 0.01
same,Period length ± standard error of the mean (expressed relative to the control) at the indicated concentration,[2]; 50 μM,50 μM: 1.42 ± 0.04
c1coc(CNc2ncnc3c2ncn3C2CCCC2)c1 [Compound 1],Period length ± standard error of the mean (expressed relative to control) at the indicated concentration,[1]; 10 μM,10 μM: 1.19 ± 0.02
same,Period length ± standard error of the mean (expressed relative to the control) at the indicated concentration,[2]; 10 μM,1.17 ± 0.01
same,Period length ± standard error of the mean (expressed relative to the control) at the indicated concentration,[2]; 50 μM,1.54 ± 0.01
CN(C)c1nc(NCc2ccco2)c2ncn(C3CCCO3)c2n1 (centres unmarked) [Compound 23],Period length ± standard error of the mean (expressed relative to control) at the indicated concentration,[1]; 10 μM,10 μM: 1.08 ± 0.01
same,Period length ± standard error of the mean (expressed relative to the control) at the indicated concentration,[2]; 10 μM,1.07 ± 0.01
same,Period length ± standard error of the mean (expressed relative to the control) at the indicated concentration,[2]; 50 μM,1.36 ± 0.04
CCCNc1nc(NCc2ccco2)c2ncn(C3CCCCO3)c2n1 (centres unmarked) [Compound 35],Period length ± standard error of the mean (expressed relative to control) at the indicated concentration,[1]; 10 μM,10 μM: 1.05 ± 0.01
same,Period length ± standard error of the mean (expressed relative to the control) at the indicated concentration,[2]; 50 μM,50 μM: 1.38 ± 0.09
CN(C)CCNc1nc(NCc2ccco2)c2ncn(C3CCCC3)c2n1 [Compound 17],Period length ± standard error of the mean (expressed relative to control) at the indicated concentration,[1]; 10 μM,10 μM: 1.48 ± 0.28
same,Period length ± standard error of the mean (expressed relative to the control) at the indicated concentration,[2]; 10 μM,1.71 ± 0.04
same,Period length ± standard error of the mean (expressed relative to the control) at the indicated concentration,[2]; 50 μM,2.17 ± 0.1
"COCCCn1cnc2c(NCc3ccco3)ncnc21 [N-(furan-2-ylmethyl)-9-(3-methoxypropyl)-9H-purin-6-amine, reference compound]",Period length ± standard error of the mean (expressed relative to control) at the indicated concentration,[1]; 50 μM,50 μM: 0.99 ± 0.01
same,Period length ± standard error of the mean (expressed relative to the control) at the indicated concentration,[2]; 50 μM,50 μM: 0.93 ± 0
CN(CCN)c1nc(NCc2ccco2)c2ncn(C3CCCC3)c2n1 [Compound 16],Period length ± standard error of the mean (expressed relative to control) at the indicated concentration,[1]; 10 μM,1.26 ± 0.07
same,Period length ± standard error of the mean (expressed relative to control) at the indicated concentration,[1]; 20 μM,1.95 ± 0.14
same,Period length ± standard error of the mean (expressed relative to the control) at the indicated concentration,[2]; 0.83 μM,1.05 ± 0.01
same,Period length ± standard error of the mean (expressed relative to the control) at the indicated concentration,[2]; 10 μM,2.02 ± 0.06
"CCOCn1cnc2c(NCc3ccco3)ncnc21 [9-(ethoxymethyl)-N-(furan-2-ylmethyl)-9H-purin-6-amine, reference compound]",Period length ± standard error of the mean (expressed relative to control) at the indicated concentration,[1]; 50 μM,50 μM: 1.01 ± 0.01
same,Period length ± standard error of the mean (expressed relative to the control) at the indicated concentration,[2]; 50 μM,50 μM: 1 ± 0.03
"COCCCCn1cnc2c(NCc3ccco3)ncnc21 [N-(furan-2-ylmethyl)-9-(4-methoxybutyl)-9H-purin-6-amine, reference compound]",Period length ± standard error of the mean (expressed relative to control) at the indicated concentration,[1]; 50 μM,50 μM: 1 ± 0.01
same,Period length ± standard error of the mean (expressed relative to the control) at the indicated concentration,[2]; 50 μM,50 μM: 0.97 ± 0.03
c1coc(CNc2nc(N3CCOCC3)nc3c2ncn3C2CCCC2)c1 [Compound 20],Period length ± standard error of the mean (expressed relative to control) at the indicated concentration,[1]; 1 μM,1.09 ± 0.01
same,Period length ± standard error of the mean (expressed relative to control) at the indicated concentration,[1]; 4 μM,1.67 ± 0.33
same,Period length ± standard error of the mean (expressed relative to the control) at the indicated concentration,[2]; 0.83 μM,1.04 ± 0.01
same,Period length ± standard error of the mean (expressed relative to the control) at the indicated concentration,[2]; 50 μM,1.55 ± 0.03
